From patent US8580776B2, “Compositions and methods for treating neurodegenerating diseases” (The Board of Trustees of the University of Illinois, priority 2007, dated 2013)

Experiments:
Format in all cases: in vivo
NOS2 = NOS2 and NeuN staining in wild type mice treated with DSP4 and injected with Aβ1-42; conditions: Aβ1-42 injected
Method: Genotyping was performed to confirm identity of NOS2 null and wild type littermates (FIG. 7A), and wild type mice treated with DSP4, and wild type mice treated with DSP4 and injected with oligomeric Aβ1-42 (FIG. 7B). One day later brain sections were analyzed for NOS2 (green) and NeuN (red) staining White arrows indicate neurons labeled with both antibodies.
Wild type and NOS2 null mice were treated with two i.p. injections of DSP4 as described below, and injected with oligomeric Aβ1-42 4 weeks after the second DSP4 injection. One day later brain sections were prepared from the mice, sections from wild type (FIG. 8A) and NOS2 null mice (FIG. 8B) were stained for SMI-32.
Slides were washed for 5 min. with PBS and blocked with 5% normal donkey serum in PBS at room temperature for 30 min. Primary antibodies were diluted in 1% normal donkey serum in PBS. […] Images were obtained on a Zeiss Axioplan2 fluorescence microscope equipped with an Axiocam MRm digital camera and Axiovision 4.2 imaging software.
Quantitative analysis of NOS2 positively staining cells was performed as described above. In brief, NOS2 positive containing neurons having large cell bodies were counted in 5 sections having a defined distance (0, 200 and 400 μm rostral and caudal) relative to the level of cortical injection, in brain sections from at least 3 or 4 animals per group. […]

TgAPP H6 mice = test: Amyloid plaque burden (Aβ1-42 staining) in brain sections of TgAPP H6 mice
Source text: Transgenic mice (H6) overexpressing the Indiana V717F mutation of human APP under control of the PDGFR promoter (Mucke et al., 2000, “High-level neuronal expression of abeta 1-42 in wild-type human amyloid protein precursor transgenic mice: synaptotoxicity without plaque formation,” J Neurosci 20:4050-8) were obtained from Dr. Lennart Mucke (J. David Gladstone Institute, San Francisco, Calif.). Male hemizygous H6 mice were bred to wild type C57BL6 (Charles River Breeding) females to obtain hemizygous progeny. Genotype was verified by PCR analysis of tail DNA using the forward primer 5′-GGTGAGTTTGTAAGTGATGCC-3′ (SEQ ID NO:1) and reverse primer 5′-TCTTCTTCTTCCACCTCAGC-3′ (SEQ ID NO:2). Animals were housed in groups of four under standard conditions with full access to food and water.
Hemizygous male H6 mice (aged 3 to 4 months) were injected with vehicle or with DSP4 (5 mg per kg; i.p., every two weeks) and all mice were sacrificed at age 9 months. This protocol (a low, chronic dose) results in 70% loss of LC noradrenergic neurons. Brains were dissected, the left hemispheres were fast frozen in isopentane at −30° C. and stored at −80° C. for subsequent protein and RNA studies. The right hemispheres were processed for immunohistochemistry.
TgAPP H6 mice were treated with DSP4 (5 mg/kg every two weeks) beginning at age 3-4 months, and brain sections analyzed at age 9 months (FIGS. 1A-1B). Hemibrains were fixed overnight in 4% paraformaldehyde in 0.1M phosphate buffer, then overnight in 10% sucrose in 0.1M phosphate buffer, and then frozen in isopentane at −30° C. Serial sections (35 um thick) were prepared on a cryostat, and stored in cryoprotective solution (0.1M phosphate buffer: ethyleneglycol: glycerol 30:40:30) at −20° C. For Aβ1-42 staining, sections were treated with formic acid (95%, 3 min), incubated overnight at 4° C. with primary antibody directed against Aβ1-42 (1:4000 dilution, Calbiochem FCA3542 rabbit polytonal antibody raised against a synthetic peptide corresponding to amino acids 706-713 of human APP), washed, then incubated with anti-rabbit biotinylated secondary antibody (Vector BA-1000, diluted 1:400) and visualized using an ABC kit (Vector). For quantification of Aβ plaques, for each animal (n=6 vehicle treated and n=6 DSP4 treated mice) 8 stained, serial sections separated by 210 μm and spanning approximately 1.5 mm between Bregma points −1.50 mm to −3.00 mm were mounted onto glass slides and imaged with a Zeiss Axiophot 2 microscope, equipped with an Axiocam B&W MRm camera. Sections were viewed at 100× using a 10× objective, and the average plaque number and % area stained (relative to the total section area of 21 mm^2) per section were determined. The threshold of brightness intensity (range black=0 to white=255) used for selection of plaques was established by determining average pixel intensity from 3 areas devoid of staining, and then adjusting that value to maximize inclusion of all visibly-stained plaques while minimizing inclusion of background areas. This value was used for all sections (all stained at the same time). For all sections, visual inspection following automated counting was done to ensure exclusion of meninges, ventricular space, or other artifacts.
Representative sections from vehicle (FIG. 1A, containing 19 plaques) and DSP4 treated (B, containing 64 plaques) mice are shown in FIG. 1. Plaque burden (number and area stained) was quantified using Axiovision 4.5 Measurement Wizard software. Sections were viewed at 100× using a 10× objective, and the average plaque number (FIG. 1C) and % area stained (FIG. 1D, relative to the total section area of 21 mm^2) per section determined (n=8 sections per animal). The data was analyzed by two-tailed t-test assuming equal variances; *, P <0.05. The relative size distribution for all plaques detected in vehicle (n=626) and DSP4 treated (n=3009) brain sections is shown (FIG. 1E). […]

EAE mice = test: NA depletion with DSP4 in EAE (MOG35-55 immunized mice); conditions: DSP4 50 mg/kg i.p. twice one week apart, MOG immunization 2 weeks later; versus vehicle

CCN(CCCl)Cc1ccccc1Br [DSP4, N-(2-chloroethyl)-N-ethyl-2-bromobenzylamine]
NOS2 expression in neurons (NOS2): increases NOS2 expression in neurons
average plaque number (TgAPP H6 mice; DSP4 5 mg/kg every two weeks, age 9 months, vehicle 13.5±3): 62.7±18 per section
average area stained (TgAPP H6 mice; DSP4 5 mg/kg every two weeks, age 9 months, vehicle 1,810±464): 11,100±3,000 μm^2
plaques >5,000 μm^2 out of all plaques detected (TgAPP H6 mice; DSP4 sections, vehicle 1/626): 16/3009
relative plaque size distribution (TgAPP H6 mice; age 9 months): did not significantly alter
increase in plaque number (TgAPP H6 mice; age 9 months, versus vehicle): 5 fold
area stained as % total sectional area (TgAPP H6 mice; age 9 months, vehicle 0.008%): 0.051%
plaque appearance in non-transgenic wild type littermates (TgAPP H6 mice; data not shown): did not induce plaque appearance
average plaque size (TgAPP H6 mice; n=3009 plaques, vehicle 135±18, increase not statistically significant): 174±8 μm^2
plaques with size greater than 7,000 μm^2 (TgAPP H6 mice; out of 3009 counted): 13 out of 3009
plaques in representative section (TgAPP H6 mice; representative section FIG. 1B, vehicle 19): 64 plaques
clinical signs of EAE (EAE mice): appeared sooner and were more severe
